Measured values reported in patent publication US20250059182A1, “SOS1 INHIBITORS” (Mirati Therapeutics, Inc., priority 2021, published 2025).
Where a name gives a salt, the structure may show the parent alone.

Molecular target: T1, recombinant human SOS1 polypeptide (amino acids 560-1049) (Homo sapiens, UniProt Q07889)
T1 construct: corresponding to amino acids 560-1049, expressed in E. Coli; made in house; host or cells: E. coli
T1 sequence (Q07889 560-1049): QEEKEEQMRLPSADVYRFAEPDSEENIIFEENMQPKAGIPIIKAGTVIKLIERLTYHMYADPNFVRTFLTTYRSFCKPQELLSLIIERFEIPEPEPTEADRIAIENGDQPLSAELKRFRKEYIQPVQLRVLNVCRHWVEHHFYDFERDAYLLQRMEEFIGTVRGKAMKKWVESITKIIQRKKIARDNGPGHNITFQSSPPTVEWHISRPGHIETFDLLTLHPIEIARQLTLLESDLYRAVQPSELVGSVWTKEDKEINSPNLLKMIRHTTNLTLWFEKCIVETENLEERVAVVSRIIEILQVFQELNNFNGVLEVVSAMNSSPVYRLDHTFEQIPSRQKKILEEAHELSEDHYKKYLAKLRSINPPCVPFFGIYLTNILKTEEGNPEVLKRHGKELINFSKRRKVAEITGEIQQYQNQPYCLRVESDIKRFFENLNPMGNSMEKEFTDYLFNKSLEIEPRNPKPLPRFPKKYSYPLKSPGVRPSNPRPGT
Test: HTRF displacement assay: inhibition of labeled tracer binding to SOS1
Conditions: Table A1, Morrison equation for competitive binding

SMILES	Ki [nM]
Cc1c(C#N)cccc1[C@@H](C)Nc1nnc(C)c2cnc(OCCOCCN3C(=O)CCC(N4C(=O)c5cccc(O)c5C4=O)C3=O)cc12 (stereo partly drawn) [Example P-207, 3-((1R)-1-((7-(2-(2-(3-(4-hydroxy-1,3-dioxoisoindolin-2-yl)-2,6-dioxopiperidin-1-yl)ethoxy)ethoxy)-4-methylpyrido[3,4-d]pyridazin-1-yl)amino)ethyl)-2-methylbenzonitrile]	865

Same assay, conditions: Table A, Morrison equation for competitive binding

SMILES	Ki [nM]
Cc1nnc(N[C@H](C)c2cccc(C(F)F)c2F)c2cc(N3CCN(C)CC3)c(F)cc12 [Example 4-20, (R)-N-(1-(3-(difluoromethyl)-2-fluorophenyl)ethyl)-6-fluoro-4-methyl-7-(4-methylpiperazin-1-yl)phthalazin-1-amine]	0.547

Tested on: pERK in MKN1 cells
Test: pERK inhibition, In-Cell Western (LI-COR Odyssey), MKN1 cells
Type: cell-based
Conditions: Homo sapiens, MKN-1, Table B1; MKN1 or H358 cells (table does not say which); 0.5-1 hour incubation; read-out: IC50 (nM), pERK inhibition
Procedure: This Example illustrates that exemplary compounds of the present invention prevent KRas-mediated GTP nucleotide exchange mediated by SOS1 to inhibit KRas activity thereby inhibiting the generation of the downstream effector pERK.
MKN1 cells (15,000/w) or H358 (30,000/w) were seeded in a black clear flat bottom 96-well cell culture plate (Corning, #3904) and incubated at 37° C. overnight. Assay day 1, cells were dosed with compounds of Formula (I) with a 10 μm starting concentration and serially diluted 3× for a total of 9 concentrations. The cells were incubated for approximately 0.5-1 hour with the compounds solubilized in DMSO at 37° C. Cells were immediately fixed by adding 50 μL of 4% formaldehyde to all wells in a fume hood and the plates were incubated for 20 minutes at room temperature. The formaldehyde was discarded from the plates and 150 μL of ice-cold methanol was added to permeabilize the cells for 10 minutes at −20° C. The methanol was discarded from each of the plates and any liquid remaining in the plate by tapping the plate against paper towels. Cells were then blocked with 150 μL of Odyssey blocking buffer (LI-COR Biosciences #927-50010) using 0.05% Tween for 1 hour at room temperature on a shaker. The blocking buffer was discarded and 50 μL of primary antibodies pERK (cell signaling Technology #9101L; Rabbit, 1:500) and GapDH (Millipore #MAB34; Mouse, 1:5000) diluted in Odyssey blocking buffer was added. The plates were incubated overnight at 4° C. on a shaker.
On Assay day 2, the primary antibody solution was removed. Each plate was washed 3× times with 150 μL of 1×PBST (PBS+0.1% Tween 20) and incubated with 50 μL of secondary antibodies: Anti-Rabbit (LI-COR Biosciences #926-32211) and Anti-Mouse (LI-COR Biosciences #68070) at 1:800 dilution in Odyssey blocking buffer with Tween at room temperature on a shaker for 2 hours (protected from light). The secondary antibody solution as removed and each plate was washed with PBST 3× times. Any liquid remaining was discarded and the plate was imaged using the Licor Odyssey machine according to the manufacturer's instruction, using a set focus length at 3 mm and both 800 nm and 700 nm filters. The GAPDH normalized scan values for each well were divided by the average of vehicle wells to get the % of pERK inhibition. The IC50 values were then calculated with the Graph pad Prism software.

SMILES	IC50 [nM]
Cc1c(C#N)cccc1[C@@H](C)Nc1nnc(C)c2cnc(N3CCc4nn(C)cc4C3)cc12 [Example P-51, (R)-2-methyl-3-(1-((4-methyl-7-(2-methyl-2,4,6,7-tetrahydro-5H-pyrazolo[4,3-c]pyridin-5-yl)pyrido[3,4-d]pyridazin-1-yl)amino)ethyl)benzonitrile]	120
Cc1c(C#N)cccc1[C@@H](C)Nc1nnc(C)c2c(C)nc(N3CCN(C)CC3)cc12 [Example P-189, (R)-3-(1-((4,5-dimethyl-7-(4-methylpiperazin-1-yl)pyrido[3,4-d]pyridazin-1-yl)amino)ethyl)-2-methylbenzonitrile]	57
Cc1c(C#N)cccc1[C@@H](C)Nc1nnc(C)c2cnc(N3CCC34CN(CCCF)C4)cc12 [Example P-228, (R)-3-(1-((7-(6-(3-fluoropropyl)-1,6-diazaspiro[3.3]heptan-1-yl)-4-methylpyrido[3,4-d]pyridazin-1-yl)amino)ethyl)-2-methylbenzonitrile]	68.4

Same assay, conditions: Homo sapiens, MKN-1, Table B; MKN1 or H358 cells (table does not say which); 0.5-1 hour incubation; read-out: IC50 (nM), pERK inhibition

SMILES	IC50 [nM]
Cc1nnc(N[C@H](C)c2cccc(C(F)(F)F)c2F)c2cc(N(C)[C@H]3CCN(C)C3)ncc12 [Example 1-28, N^1-((R)-1-(2-fluoro-3-(trifluoromethyl)phenyl)ethyl)-N^7,4-dimethyl-N^7-((S)-1-methylpyrrolidin-3-yl)pyrido[3,4-d]pyridazine-1,7-diamine]	52.3
Cc1nnc(N[C@H](C)c2cccc(C(F)(F)F)c2F)c2cc(N(C)[C@@H]3CCN(C)C3)ncc12 [Example 1-29, N^1-((R)-1-(2-fluoro-3-(trifluoromethyl)phenyl)ethyl)-N^7,4-dimethyl-N^7-((R)-1-methylpyrrolidin-3-yl)pyrido[3,4-d]pyridazine-1,7-diamine]	41
Cc1nnc(N[C@H](C)c2ccc(C#N)cc2F)c2cc(N3CCN(C)CC3)ncc12 [Example 1-98, (R)-3-fluoro-4-(1-((4-methyl-7-(4-methylpiperazin-1-yl)pyrido[3,4-d]pyridazin-1-yl)amino)ethyl)benzonitrile]	186
Cc1c(C#N)cccc1[C@@H](C)Nc1nnc(C)c2cc(F)c(N3CC(C)(N(C)C)C3)cc12 [Example 4-8, (R)-3-(1-((7-(3-(dimethylamino)-3-methylazetidin-1-yl)-6-fluoro-4-methylphthalazin-1-yl)amino)ethyl)-2-methylbenzonitrile]	109

Second part, the compound after the results:

IC50 [nM]	SMILES
120	Cc1c(C#N)cccc1[C@@H](C)Nc1nnc(C)c2cc(F)c(N3CCOCC3)cc12 [Example 4-12, (R)-3-(1-((6-fluoro-4-methyl-7-morpholinophthalazin-1-yl)amino)ethyl)-2-methylbenzonitrile]
53.9	Cc1c(C#N)cccc1[C@@H](C)Nc1nnc(C)c2cnc(N(C)[C@@H]3CCN(C(C)C)C3)cc12 [Example 1-78, 3-((R)-1-((7-(((R)-1-isopropylpyrrolidin-3-yl)(methyl)amino)-4-methylpyrido[3,4-d]pyridazin-1-yl)amino)ethyl)-2-methylbenzonitrile]
165	COc1cc2c(C)nnc(N[C@H](C)c3cccc(C#N)c3C)c2cc1O[C@H]1CCOC1 [Example 6-15, 3-((R)-1-((6-methoxy-4-methyl-7-(((S)-tetrahydrofuran-3-yl)oxy)phthalazin-1-yl)amino)ethyl)-2-methylbenzonitrile]
61	Cc1c(C#N)cccc1[C@@H](C)Nc1nnc(C)c2cnc(N3C[C@H](C)N(C)[C@@H](C)C3)cc12 [Example 1-68, 2-methyl-3-((R)-1-((4-methyl-7-((3S,5S)-3,4,5-trimethylpiperazin-1-yl)pyrido[3,4-d]pyridazin-1-yl)amino)ethyl)benzonitrile]
250	Cc1c(C#N)cccc1[C@@H](C)Nc1nnc(C)c2cnc(N[C@H]3CCN(C)C3)cc12 [Example 1-30, 2-methyl-3-((R)-1-((4-methyl-7-(((S)-1-methylpyrrolidin-3-yl)amino)pyrido[3,4-d]pyridazin-1-yl)amino)ethyl)benzonitrile]
99	Cc1c(C#N)cccc1[C@@H](C)Nc1nnc(C)c2cnc(N3CCN(C)C(=O)C3)cc12 [Example 1-45, (R)-2-methyl-3-(1-((4-methyl-7-(4-methyl-3-oxopiperazin-1-yl)pyrido[3,4-d]pyridazin-1-yl)amino)ethyl)benzonitrile]
60.9	Cc1c(C#N)cccc1[C@@H](C)Nc1nnc(C)c2cnc(N3CC4(COC4)C3)cc12 [Example 1-80, (R)-2-methyl-3-(1-((4-methyl-7-(2-oxa-6-azaspiro[3.3]heptan-6-yl)pyrido[3,4-d]pyridazin-1-yl)amino)ethyl)benzonitrile]
128	Cc1c(C#N)cccc1[C@@H](C)Nc1nnc(C)c2cnc(N[C@@H]3CCN(C)C3)cc12 [Example 1-31, 2-methyl-3-((R)-1-((4-methyl-7-(((R)-1-methylpyrrolidin-3-yl)amino)pyrido[3,4-d]pyridazin-1-yl)amino)ethyl)benzonitrile]
286	Cc1c(C#N)cccc1[C@@H](C)Nc1nnc(C)c2cc(Cl)c(N3CCOCC3)cc12 [7-2, (R)-3-(1-((6-chloro-4-methyl-7-morpholinophthalazin-1-yl)amino)ethyl)-2-methylbenzonitrile]
75.2	Cc1c(C#N)cccc1[C@@H](C)Nc1nnc(C)c2cnc(N(C)[C@H]3CCN(C(C)C)C3)cc12 [Example 1-79, 3-((R)-1-((7-(((S)-1-isopropylpyrrolidin-3-yl)(methyl)amino)-4-methylpyrido[3,4-d]pyridazin-1-yl)amino)ethyl)-2-methylbenzonitrile]
121	Cc1c(C#N)cccc1[C@@H](C)Nc1nnc(C)c2cnc(N3C[C@@H](C)N(C)[C@@H](C)C3)cc12 [Example 1-67, 2-methyl-3-((R)-1-((4-methyl-7-((3R,5S)-3,4,5-trimethylpiperazin-1-yl)pyrido[3,4-d]pyridazin-1-yl)amino)ethyl)benzonitrile]
590	Cc1c(C#N)cccc1[C@@H](C)Nc1nnc(C)c2cnc(N3C[C@@H]4C[C@H]3CN4)cc12 [Example 1-75, 3-((R)-1-((7-((1S,4S)-2,5-diazabicyclo[2.2.1]heptan-2-yl)-4-methylpyrido[3,4-d]pyridazin-1-yl)amino)ethyl)-2-methylbenzonitrile]

Same assay, conditions: Homo sapiens, MKN-1, read-out: IC50 (nM), pERK inhibition

SMILES	IC50 [nM]
Cc1c(Br)cccc1[C@@H](C)Nc1nnc(C)c2cnc(N3CCOCC3)cc12 [Example P-213, (R)-N-(1-(3-bromo-2-methylphenyl)ethyl)-4-methyl-7-morpholinopyrido[3,4-d]pyridazin-1-amine formic acid salt]	114
COc1cc2cnnc(N[C@H](C)c3cccc4ccccc34)c2cc1OC [Example P-210, (R)-6,7-dimethoxy-N-(1-(naphthalen-1-yl)ethyl)phthalazin-1-amine formic acid salt]	> 10000
